Measurements published in patent publication US10894784B2, “Heteroarylbenzimidazole compounds” (BAYER PHARMA AKTIENGESELLSCHAFT, priority 2015, dated 2021).

target: TBK1 (Homo sapiens (Human), UniProt Q9UHD2); test: TBK1 low ATP kinase assay (in vitro assay 1); format: biochemical; details: TBK1 low ATP kinase assay IC50, in vitro assay 1
Sequence (Q9UHD2 whole entry): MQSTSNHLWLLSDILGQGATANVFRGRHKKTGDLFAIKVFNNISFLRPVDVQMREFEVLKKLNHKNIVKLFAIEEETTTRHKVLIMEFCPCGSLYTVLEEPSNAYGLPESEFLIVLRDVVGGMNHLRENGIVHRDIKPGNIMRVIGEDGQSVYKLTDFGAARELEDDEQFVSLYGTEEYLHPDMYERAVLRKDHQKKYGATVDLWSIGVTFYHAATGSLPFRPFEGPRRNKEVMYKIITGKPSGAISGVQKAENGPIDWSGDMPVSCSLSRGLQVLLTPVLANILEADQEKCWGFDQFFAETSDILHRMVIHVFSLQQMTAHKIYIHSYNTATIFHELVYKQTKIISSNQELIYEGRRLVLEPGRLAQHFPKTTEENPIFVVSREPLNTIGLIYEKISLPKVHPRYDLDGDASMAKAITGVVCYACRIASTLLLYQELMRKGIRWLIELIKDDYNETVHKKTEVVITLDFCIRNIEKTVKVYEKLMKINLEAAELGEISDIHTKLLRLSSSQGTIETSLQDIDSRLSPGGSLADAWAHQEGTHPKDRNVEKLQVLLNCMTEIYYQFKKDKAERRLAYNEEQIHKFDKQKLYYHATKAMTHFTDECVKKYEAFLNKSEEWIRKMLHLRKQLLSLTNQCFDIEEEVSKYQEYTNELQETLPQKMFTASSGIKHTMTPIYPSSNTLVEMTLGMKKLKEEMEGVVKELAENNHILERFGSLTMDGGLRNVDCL

| IC50 [nM] | Structure (SMILES) |
| --- | --- |
| 1.8 | CC(c1ccnc(Nc2nc3ccc(-c4cc(OCC5CC5)ncn4)cc3[nH]2)c1)N1CCN(C(=O)CC(F)(F)F)CC1 (single isomer, unassigned) [Example 85.03, 1-(4-{(1R or 1S)-1-[2-({6-[6-(cyclopropylmethoxy)pyrimidin-4-yl]-1H-benzimidazol-2-yl}amino)pyridin-4-yl]ethyl}piperazin-1-yl)-3,3,3-trifluoropropan-1-one] |

same assay, conditions: in vitro assay 1, read-out: TBK1 low ATP kinase assay IC50

| IC50 [nM] | Structure (SMILES) |
| --- | --- |
| 12 | CC(c1ccnc(Nc2nc3ccc(-c4cnn(CC5(Cl)CC5)c4)cc3[nH]2)c1)N1CCN(C(=O)OC(C)(C)C)CC1 (single isomer, unassigned) [Example 69.01, tert-butyl 4-[(1R or 1S)-1-{2-[(6-{1-[(1-chlorocyclopropyl)methyl]-1H-pyrazol-4-yl}-1H-benzimidazol-2-yl)amino]pyridin-4-yl}ethyl]piperazine-1-carboxylate] |
| 0.64 | CC(c1ccnc(Nc2nc3ccc(-c4cnn(CC5(Cl)CC5)c4)cc3[nH]2)c1)N1CCN(C(=O)CC(F)(F)F)CC1 (single isomer, unassigned) [Example 69.02, 1-{4-[(1R or 1S)-1-{2-[(6-{1-[(1-chlorocyclopropyl)methyl]-1H-pyrazol-4-yl}-1H-benzimidazol-2-yl)amino]pyridin-4-yl}ethyl]piperazin-1-yl}-3,3,3-trifluoropropan-1-one] |
| 0.88 | CC(c1ccnc(Nc2nc3ccc(-c4cnn(CC5CC5(F)F)c4)c(Cl)c3[nH]2)c1)N1CCN(C(=O)CC(F)(F)F)CC1 (single isomer, unassigned) [Example 70.01, 1-{4-[(1R or 1S)-1-(2-{[7-chloro-6-(1-{[(1RS)-2,2-difluorocyclopropyl]methyl}-1H-pyrazol-4-yl)-1H-benzimidazol-2-yl]amino}pyridin-4-yl)ethyl]piperazin-1-yl}-3,3,3-trifluoropropan-1-one] |
| 0.73 | CC(c1ccnc(Nc2nc3ccc(-c4cnn(CC5CC5(F)F)c4)c(Cl)c3[nH]2)c1)N1CCN(C(=O)C2CC2)CC1 (single isomer, unassigned) [Example 70.02, {4-[(1R or 1S)-1-(2-{[7-chloro-6-(1-{[(1RS)-2,2-difluorocyclopropyl]methyl}-1H-pyrazol-4-yl)-1H-benzimidazol-2-yl]amino}pyridin-4-yl)ethyl]piperazin-1-yl}(cyclopropyl)methanone] |
| 100 | CC(c1ccnc(Nc2nc3ccc(-c4cnn(CC5CCCC5)c4)cc3[nH]2)c1)N1CCN(C(=O)OC(C)(C)C)CC1 (single isomer, unassigned) [Example 71.01, tert-butyl 4-{(1R or 1S)-1-[2-({6-[1-(cyclopentylmethyl)-1H-pyrazol-4-yl]-1H-benzimidazol-2-yl}amino)pyridin-4-yl]ethyl}piperazine-1-carboxylate] |
| 800 | CC(c1ccnc(Nc2nc3ccc(-c4ccnn4C(C)C)cc3[nH]2)c1)N1CCN(C(=O)OC(C)(C)C)CC1 (single isomer, unassigned) [Example 72.01, tert-butyl 4-{(1R or 1S)-1-[2-({6-[1-(propan-2-yl)-1H-pyrazol-5-yl]-1H-benzimidazol-2-yl}amino)pyridin-4-yl]ethyl}piperazine-1-carboxylate] |
| 250 | CC(c1ccnc(Nc2nc3ccc(-c4ccnn4C(C)C)cc3[nH]2)c1)N1CCN(C(=O)CC(F)(F)F)CC1 (single isomer, unassigned) [Example 72.02, 3,3,3-trifluoro-1-(4-{(1R or 1S)-1-[2-({6-[1-(propan-2-yl)-1H-pyrazol-5-yl]-1H-benzimidazol-2-yl}amino)pyridin-4-yl]ethyl}piperazin-1-yl)propan-1-one] |
| 100 | CC(c1ccnc(Nc2nc3ccc(-c4ccnn4C(C)C)cc3[nH]2)c1)N1CCN(C(=O)C2CC2)CC1 (single isomer, unassigned) [Example 72.03, cyclopropyl(4-{(1R or 1S)-1-[2-({6-[1-(propan-2-yl)-1H-pyrazol-5-yl]-1H-benzimidazol-2-yl}amino)pyridin-4-yl]ethyl}piperazin-1-yl)methanone] |
| 67 | Cc1cnn(C)c1-c1ccc2nc(Nc3cc(C(C)N4CCN(C(=O)CC(F)(F)F)CC4)ccn3)[nH]c2c1 (single isomer, unassigned) [Example 73.01, 1-{4-[(1R or 1S)-1-(2-{[6-(1,4-dimethyl-1H-pyrazol-5-yl)-1H-benzimidazol-2-yl]amino}pyridin-4-yl)ethyl]piperazin-1-yl}-3,3,3-trifluoropropan-1-one] |
| 120 | CC(c1ccnc(Nc2nc3ccc(-c4cnn(C(C)C5CC5)c4)cc3[nH]2)c1)N1CCN(C(=O)OC(C)(C)C)CC1 (single isomer, unassigned) [Example 74.01, tert-butyl 4-[(1R or 1S)-1-{2-[(6-{1-[(1RS)-1-cyclopropylethyl]-1H-pyrazol-4-yl}-1H-benzimidazol-2-yl)amino]pyridin-4-yl}ethyl]piperazine-1-carboxylate] |
| 19 | CC(c1ccnc(Nc2nc3ccc(-c4cnn(C(C)C5CC5)c4)cc3[nH]2)c1)N1CCN(C(=O)CC(F)(F)F)CC1 (single isomer, unassigned) [Example 74.02, 1-{4-[(1R or 1S)-1-{2-[(6-{1-[(1RS)-1-cyclopropylethyl]-1H-pyrazol-4-yl}-1H-benzimidazol-2-yl)amino]pyridin-4-yl}ethyl]piperazin-1-yl}-3,3,3-trifluoropropan-1-one] |
| 20 | CC(c1ccnc(Nc2nc3ccc(-c4cnn(CC5CCC5)c4)c(Cl)c3[nH]2)c1)N1CCN(C(=O)OC(C)(C)C)CC1 (single isomer, unassigned) [Example 75.01, tert-butyl 4-{(1R or 1S)-1-[2-({7-chloro-6-[1-(cyclobutylmethyl)-1H-pyrazol-4-yl]-1H-benzimidazol-2-yl}amino)pyridin-4-yl]ethyl}piperazine-1-carboxylate] |
| 1.4 | CC(c1ccnc(Nc2nc3ccc(-c4cnn(CC5CCC5)c4)c(Cl)c3[nH]2)c1)N1CCN(C(=O)CC(F)(F)F)CC1 (single isomer, unassigned) [Example 75.02, 1-(4-{(1R or 1S)-1-[2-({7-chloro-6-[1-(cyclobutylmethyl)-1H-pyrazol-4-yl]-1H-benzimidazol-2-yl}amino)pyridin-4-yl]ethyl}piperazin-1-yl)-3,3,3-trifluoropropan-1-one] |
| 0.88 | CC(c1ccnc(Nc2nc3ccc(-c4cnn(CC5CCC5)c4)c(Cl)c3[nH]2)c1)N1CCN(C(=O)C2CC2)CC1 (single isomer, unassigned) [Example 75.03, (4-{(1R or 1S)-1-[2-({7-chloro-6-[1-(cyclobutylmethyl)-1H-pyrazol-4-yl]-1H-benzimidazol-2-yl}amino)pyridin-4-yl]ethyl}piperazin-1-yl)(cyclopropyl)methanone] |
| 2.2 | COc1c(C)ncnc1-c1ccc2nc(Nc3cc(C(C)N4CCN(C(=O)CC(F)(F)F)CC4)ccn3)[nH]c2c1 (single isomer, unassigned) [Example 83.03, 3,3,3-trifluoro-1-{4-[(1R or 1S)-1-(2-{[6-(5-methoxy-6-methylpyrimidin-4-yl)-1H-benzimidazol-2-yl]amino}pyridin-4-yl)ethyl]piperazin-1-yl}propan-1-one] |
| 1.5 | COc1c(C)ncnc1-c1ccc2nc(Nc3cc(C(C)N4CCN(C(=O)C5CC5)CC4)ccn3)[nH]c2c1 (single isomer, unassigned) [Example 83.04, cyclopropyl{4-[(1R or 1S)-1-(2-{[6-(5-methoxy-6-methylpyrimidin-4-yl)-1H-benzimidazol-2-yl]amino}pyridin-4-yl)ethyl]piperazin-1-yl}methanone] |
| 1.1 | COCc1cc(-c2ccc3nc(Nc4cc(C(C)N5CCN(C(=O)OC(C)(C)C)CC5)ccn4)[nH]c3c2)ncn1 (single isomer, unassigned) [Example 84.01, tert-butyl 4-{(1R or 1S)-1-[2-({6-[6-(methoxymethyl)pyrimidin-4-yl]-1H-benzimidazol-2-yl}amino)pyridin-4-yl]ethyl}piperazine-1-carboxylate] |
| 1.7 | COCc1cc(-c2ccc3nc(Nc4cc(C(C)N5CCN(C(=O)C6CC6)CC5)ccn4)[nH]c3c2)ncn1 (single isomer, unassigned) [Example 84.03, cyclopropyl(4-{(1R or 1S)-1-[2-({6-[6-(methoxymethyl)pyrimidin-4-yl]-1H-benzimidazol-2-yl}amino)pyridin-4-yl]ethyl}piperazin-1-yl)methanone] |
| 5.7 | CC(c1ccnc(Nc2nc3ccc(-c4cc(Cl)ncn4)cc3[nH]2)c1)N1CCN(C(=O)OC(C)(C)C)CC1 (single isomer, unassigned) [Example 85.01, tert-Butyl 4-[(1R or 1S)-1-(2-{[6-(6-chloropyrimidin-4-yl)-1H-benzimidazol-2-yl]amino}pyridin-4-yl)ethyl]piperazine-1-carboxylate] |
| 14 | CC(c1ccnc(Nc2nc3ccc(-c4cc(OCC5CC5)ncn4)cc3[nH]2)c1)N1CCN(C(=O)OC(C)(C)C)CC1 (single isomer, unassigned) [Example 85.02, tert-Butyl 4-{(1R or 1S)-1-[2-({6-[6-(cyclopropylmethoxy)pyrimidin-4-yl]-1H-benzimidazol-2-yl}amino)pyridin-4-yl]ethyl}piperazine-1-carboxylate] |
| 11 | CC(c1ccnc(Nc2nc3ccc(-c4cnn(CC5CC5(F)F)c4)c(F)c3[nH]2)c1)N1CCN(C(=O)OC(C)(C)C)CC1 (single isomer, unassigned) [Example 86.01, tert-butyl 4-[(1R or 1S)-1-(2-{[6-(1-{[(1RS)-2,2-difluorocyclopropyl]methyl}-1H-pyrazol-4-yl)-7-fluoro-1H-benzimidazol-2-yl]amino}pyridin-4-yl)ethyl]piperazine-1-carboxylate] |
| 2.1 | CC(c1ccnc(Nc2nc3ccc(-c4cnn(CC5CC5(F)F)c4)c(F)c3[nH]2)c1)N1CCN(C(=O)CC(F)(F)F)CC1 (single isomer, unassigned) [Example 86.02, 1-{4-[(1R or 1S)-1-(2-{[6-(1-{[(1RS)-2,2-difluorocyclopropyl]methyl}-1H-pyrazol-4-yl)-7-fluoro-1H-benzimidazol-2-yl]amino}pyridin-4-yl)ethyl]piperazin-1-yl}-3,3,3-trifluoropropan-1-one] |
